Results on 18 compounds are retold here after ChEMBL document CHEMBL6083290, “Proline Analogues in Drug Design: Current Trends and Future Prospects” (J Med Chem, 2024).

In data set [1] the target is T1, Replicase polyprotein 1ab (Severe acute respiratory syndrome coronavirus 2, UniProt P0DTD1).
Description: Inhibition of SARS-CoV-2 main protease
Data set [2] addresses T1, Replicase polyprotein 1ab. This is another data set of the same source.
Description: Inhibition of SARS-CoV-2 main protease extracted from Escherichia coli BL21 (DE3) cells
Data set [3] is described as follows: Lipophilicity, logP of compound. The following applies: octanol/water.
Data set [4] concerns SARS-CoV-2. As to the kind of experiment: microbe, parasite or virus in culture. The settings on record: Severe acute respiratory syndrome coronavirus 2, 2019-nCoV Muc-IMB-1, Vero C1008, 48 h.
Description: Antiviral activity against SARS-CoV-2 2019-nCoV Muc-IMB-1 infected in Vero E6 cells assessed as reduction in viral replication measured after 48 hrs by qRT-PCR analysis
The target of data set [5] is Endothelial PAS domain-containing protein 1 (Homo sapiens, UniProt Q99814). As to the kind of experiment: Binding affinity to HIF-2alpha (unknown origin) assessed as dissociation constant.
Sequence of Endothelial PAS domain-containing protein 1 (Q99814 whole entry, the tested form may be a part): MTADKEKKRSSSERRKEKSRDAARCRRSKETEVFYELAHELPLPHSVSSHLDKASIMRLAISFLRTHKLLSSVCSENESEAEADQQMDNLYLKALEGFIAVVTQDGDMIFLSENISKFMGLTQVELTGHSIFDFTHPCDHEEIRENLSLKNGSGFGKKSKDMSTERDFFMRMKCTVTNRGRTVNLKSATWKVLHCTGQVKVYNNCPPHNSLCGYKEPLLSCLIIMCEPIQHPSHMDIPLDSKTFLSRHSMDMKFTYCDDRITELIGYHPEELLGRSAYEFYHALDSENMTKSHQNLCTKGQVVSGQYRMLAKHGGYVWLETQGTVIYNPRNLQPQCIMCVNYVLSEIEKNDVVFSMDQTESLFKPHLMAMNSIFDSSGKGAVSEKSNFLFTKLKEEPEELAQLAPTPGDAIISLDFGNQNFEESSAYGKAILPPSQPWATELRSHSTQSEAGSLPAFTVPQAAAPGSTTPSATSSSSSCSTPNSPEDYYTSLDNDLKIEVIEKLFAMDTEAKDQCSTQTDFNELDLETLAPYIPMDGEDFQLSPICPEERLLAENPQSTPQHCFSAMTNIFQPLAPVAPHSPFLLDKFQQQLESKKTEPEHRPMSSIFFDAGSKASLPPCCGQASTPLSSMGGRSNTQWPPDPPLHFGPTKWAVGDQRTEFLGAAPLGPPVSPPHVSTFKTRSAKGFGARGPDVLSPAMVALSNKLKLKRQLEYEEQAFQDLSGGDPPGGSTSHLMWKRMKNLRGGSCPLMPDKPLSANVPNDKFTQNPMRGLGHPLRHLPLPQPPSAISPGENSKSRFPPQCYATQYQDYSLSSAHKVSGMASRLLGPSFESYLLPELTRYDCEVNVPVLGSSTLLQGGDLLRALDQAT
Data set [6] in a line: Inhibition of Glutamate receptor (unknown origin).
Data set [7] addresses T2, Renin (Homo sapiens, UniProt P00797).
T2 sequence (P00797 whole entry): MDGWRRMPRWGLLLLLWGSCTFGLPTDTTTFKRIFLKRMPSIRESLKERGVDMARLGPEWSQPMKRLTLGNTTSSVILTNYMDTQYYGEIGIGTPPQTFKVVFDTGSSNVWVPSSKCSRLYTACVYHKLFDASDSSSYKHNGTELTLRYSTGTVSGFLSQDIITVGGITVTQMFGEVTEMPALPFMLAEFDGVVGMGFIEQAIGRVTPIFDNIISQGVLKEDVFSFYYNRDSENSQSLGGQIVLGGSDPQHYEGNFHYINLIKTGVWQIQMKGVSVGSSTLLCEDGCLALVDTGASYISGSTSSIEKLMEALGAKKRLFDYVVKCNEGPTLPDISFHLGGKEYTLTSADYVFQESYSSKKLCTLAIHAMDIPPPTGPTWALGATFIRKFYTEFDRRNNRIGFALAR
As to the kind of experiment: Inhibition of renin (unknown origin) using Arg-Glu(EDANS)-lle-His-Pro-Phe-His-Leu-Val-lle-His-Thr-Lys(dabcyl)-Arg as substrate incubated for 10 mins by fluorescence based assay.

For data set [8], the system named is MCF7. As to the kind of experiment: Antiproliferative activity against human MCF7 cells assessed as reduction in cell viability incubated for 48 hrs by MTT assay. The following applies: MCF7, 48 h. On the technique in general: Tetrazolium dyes change colour on reduction, which living cells bring about.
Data set [9] concerns L-363. As to the kind of experiment: Antiproliferative activity against human L-363 cells assessed as reduction in cell growth incubated for 72 hrs by MTT assay. The following applies: L-363, 72 h.
Data set [10] concerns the target Phosphatidylinositol 4,5-bisphosphate 3-kinase catalytic subunit alpha isoform (Homo sapiens, UniProt P42336). As to the kind of experiment: Inhibition of PI3Kalpha (unknown origin) using PIP2 as substrate measured after 30 mins by TR-FRET assay. A general note: Time-resolved FRET reads energy transfer from a long-lived donor to a nearby acceptor.
The nature of data set [11]: Metabolic stability in rat liver microsomes assessed as half life.
Data set [12] is described as follows: in vitro. The settings on record: rat, plasma.

The structures appear in SMILES notation. Starred links: 1 amine or outer side, 2 acyl side, 3 side chain; linkers in the order of their positions; H or OH if unused. Non-standard residues stand in square brackets, D forms with d. Residues, ends and D or L forms follow the SMILES beside them. ξ: configuration not given here. *: point of attachment. X3 = CC(C)C[C@H](N[*:1])[C@H](O)C[C@H](C(=O)[*:2])C(C)C; X2 = O=C(C1[C@@H](F)[C@@H](O)CN1[*:1])[*:2]; X1 = O=C(C1[C@H](F)[C@@H](O)CN1[*:1])[*:2]; ξPro(4R-OH) = O=C(O)C1C[C@@H](O)CN1; NHCH2(2-pyridyl) = c1ccc(CN*)nc1; αMeP = C[C@@]1(C(=O)O)CCCN1; Boc = CC(C)(C)OC(=O)*

Sequence of Phosphatidylinositol 4,5-bisphosphate 3-kinase catalytic subunit alpha isoform (P42336 whole entry, canonical isoform): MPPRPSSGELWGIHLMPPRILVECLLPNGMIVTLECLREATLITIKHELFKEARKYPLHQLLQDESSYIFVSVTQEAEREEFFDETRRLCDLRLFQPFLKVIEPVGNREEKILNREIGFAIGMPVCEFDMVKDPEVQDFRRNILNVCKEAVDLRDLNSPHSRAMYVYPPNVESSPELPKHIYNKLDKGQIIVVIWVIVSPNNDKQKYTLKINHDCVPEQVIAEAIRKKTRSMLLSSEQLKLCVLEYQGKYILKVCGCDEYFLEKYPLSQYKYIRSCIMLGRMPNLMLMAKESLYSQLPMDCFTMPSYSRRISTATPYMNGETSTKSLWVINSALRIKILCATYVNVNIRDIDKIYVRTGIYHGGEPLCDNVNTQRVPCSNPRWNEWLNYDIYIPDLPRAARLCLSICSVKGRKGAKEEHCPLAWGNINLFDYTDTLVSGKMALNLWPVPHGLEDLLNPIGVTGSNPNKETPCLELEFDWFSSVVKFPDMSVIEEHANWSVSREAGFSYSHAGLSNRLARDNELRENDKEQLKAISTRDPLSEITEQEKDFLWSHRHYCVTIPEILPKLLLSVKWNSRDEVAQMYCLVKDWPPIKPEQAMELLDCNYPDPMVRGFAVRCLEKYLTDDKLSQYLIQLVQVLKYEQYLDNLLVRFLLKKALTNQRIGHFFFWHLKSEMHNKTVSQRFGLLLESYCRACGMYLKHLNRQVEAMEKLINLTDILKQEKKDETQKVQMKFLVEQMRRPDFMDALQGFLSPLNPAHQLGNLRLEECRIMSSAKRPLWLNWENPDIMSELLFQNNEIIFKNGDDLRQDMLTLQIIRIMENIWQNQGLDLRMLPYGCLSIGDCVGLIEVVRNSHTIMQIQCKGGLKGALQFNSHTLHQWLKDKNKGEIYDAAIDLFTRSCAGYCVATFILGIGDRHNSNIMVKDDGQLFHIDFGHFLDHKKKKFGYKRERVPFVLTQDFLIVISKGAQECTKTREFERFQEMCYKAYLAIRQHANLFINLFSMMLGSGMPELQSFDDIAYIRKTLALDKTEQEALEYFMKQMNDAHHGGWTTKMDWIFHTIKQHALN

Usually IC50 stands for the point on the concentration scale where inhibition reaches its midpoint. As to `COc1ccc2nccc(C(=O)NCC(=O)N3CC(F)(F)C[C@H]3C#N)c2c1`, the 50% inhibitory concentration (IC50) in data set [1] amounted to 9 nM.

Consider `Cc1c(COc2cc(OCc3cccc(C#N)c3)c(CN3C[C@H](O)C[C@@H]3C(=O)O)cc2Cl)cccc1-c1ccc2c(c1)OCCO2`, for which the half-maximal inhibitory concentration (IC50) in data set [1] turned out to be 10.9 nM.

By logP is commonly meant the decadic logarithm of the partition coefficient of the neutral form, usually between octanol and water. A higher logP goes with higher lipophilicity. `COc1ccc(/C=C/C(=O)N2C[C@@H](NC(=O)c3cccnc3)C[C@H]2C(=O)NO)cc1OC` showed a concentration for half-maximal inhibition (IC50) in data set [2] of 9 nM. The compound further displayed a lipophilicity (logP) in data set [3] of 0.1.

A word on the EC50: it is the midpoint of the concentration-response curve. With `CC(C)(C)[C@H](NC(=O)C(F)(F)F)C(=O)N1C[C@H]2[C@@H]([C@H]1C(=O)N[C@H](C#N)C[C@@H]1CCNC1=O)C2(C)C`, the half-maximal effective concentration (EC50) in data set [4] came to 5600 nM.

Consider `COc1cccc2[nH]c(C(=O)N[C@@H](CC(C)C)C(=O)N[C@H](C#N)C[C@@H]3CCNC3=O)cc12`, for which it took 1200 nM to reach a half-maximal effect in [4] (EC50).

As for `COc1cccc2[nH]c(C(=O)N3C[C@H]4[C@@H]([C@H]3C(=O)N[C@@H](C[C@@H]3CCNC3=O)C(=O)c3nc5ccccc5s3)C4(C)C)cc12`, the EC50 in data set [4] was 1400 nM.

Broadly, the Kd is a measure of binding affinity in units of concentration. `CC(=O)N[C@@H](C(=O)N1C[C@H](O)[C@H](F)C1C(=O)NCc1ccc(-c2scnc2C)cc1)C(C)(C)C` (some centres not stated): in [5], the Kd was found to be 0.24 nM.

For `C[C@@H](C(=O)N[C@H](C(=O)N1C[C@H](OC(F)F)C[C@H]1C(=O)N[C@H](C#N)C[C@@H]1CCNC1=O)C(C)(C)C)N(C)C(=O)CCCCCNc1cccc2c1C(=O)N(C1CCC(=O)NC1=O)C2=O` (some centres not stated), the IC50 in data set [2] is 182 nM.

On to `CC(=O)N[C@@H](C(=O)N1C[C@H](O)[C@@H](F)C1C(=O)NCc1ccc(-c2scnc2C)cc1)C(C)(C)C` (some centres not stated), for which the equilibrium dissociation constant (Kd) in [5] amounted to 3.1 nM.

`O=C(O)[C@@H]1C[C@H]2C[C@H](CN3CC(F)(F)C[C@H]3C(=O)O)CC[C@H]2CN1`: in data set [6], the IC50 worked out at 45 nM.

On to `CC[C@H](C)[C@H](NC(=O)[C@@H](C[C@@H](O)[C@H](CC(C)C)NC(=O)[C@H](Cc1c[nH]cn1)NC(=O)[C@H](Cc1ccccc1)NC(=O)[C@]1(C)CCCN1C(=O)OC(C)(C)C)C(C)C)C(=O)NCc1ccccn1` (Boc-[αMeP]FH[X3]I-{NHCH2(2-pyridyl)}), for which, in data set [7], the IC50 was determined as 2 nM.

For the compound `CC[C@H](C)[C@H](NC(=O)[C@H](CCC(=O)O)NC(=O)[C@H](Cc1ccccc1)NC(=O)[C@H](CC(=O)O)NC(=O)[C@H](CC(=O)O)NC(=O)[C@H](CC(=O)O)NC(=O)[C@H](CCSC)NC(=O)[C@@H]1CCCN1C(=O)[C@H](Cc1ccc(O)cc1)NC(=O)C1[C@H](F)[C@@H](O)CN1C(=O)[C@H](C)NC(=O)[C@H](CC(C)C)NC(=O)[C@H](C)NC(=O)[C@H](CCC(=O)O)NC(=O)[C@@H](N)CC(=O)O)C(=O)N[C@@H](CCCNC(=N)N)C(=O)N[C@@H](CO)C(=O)N[C@@H](Cc1ccccc1)C(=O)O` (some centres not stated) (H-DEALA[X1]YPMDDDFEIRSF-OH), the dissociation constant Kd in data set [5] is 52 nM.

Consider `CC[C@H](C)[C@H](NC(=O)[C@H](CCC(=O)O)NC(=O)[C@H](Cc1ccccc1)NC(=O)[C@H](CC(=O)O)NC(=O)[C@H](CC(=O)O)NC(=O)[C@H](CC(=O)O)NC(=O)[C@H](CCSC)NC(=O)[C@@H]1CCCN1C(=O)[C@H](Cc1ccc(O)cc1)NC(=O)C1[C@@H](F)[C@@H](O)CN1C(=O)[C@H](C)NC(=O)[C@H](CC(C)C)NC(=O)[C@H](C)NC(=O)[C@H](CCC(=O)O)NC(=O)[C@@H](N)CC(=O)O)C(=O)N[C@@H](CCCNC(=N)N)C(=O)N[C@@H](CO)C(=O)N[C@@H](Cc1ccccc1)C(=O)O` (some centres not stated) (H-DEALA[X2]YPMDDDFEIRSF-OH), for which, in data set [5], the Kd was 12 nM.

Consider `CC[C@H](C)[C@H](NC(=O)[C@H](CCC(=O)O)NC(=O)[C@H](Cc1ccccc1)NC(=O)[C@H](CC(=O)O)NC(=O)[C@H](CC(=O)O)NC(=O)[C@H](CC(=O)O)NC(=O)[C@H](CCSC)NC(=O)[C@@H]1CCCN1C(=O)[C@H](Cc1ccc(O)cc1)NC(=O)C1C[C@@H](O)CN1C(=O)[C@H](C)NC(=O)[C@H](CC(C)C)NC(=O)[C@H](C)NC(=O)[C@H](CCC(=O)O)NC(=O)[C@@H](N)CC(=O)O)C(=O)N[C@@H](CCCNC(=N)N)C(=O)N[C@@H](CO)C(=O)N[C@@H](Cc1ccccc1)C(=O)O` (stereo partly drawn) (H-DEALA[ξPro(4R-OH)]YPMDDDFEIRSF-OH), for which the Kd in [5] came out at 11 nM.

With `Cc1nc(NC(=O)N2CCC[C@H]2C(N)=O)sc1-c1ccnc(C(C)(C)C(F)(F)F)c1` [ALPELISIB], the IC50 in data set [8] is 1200 nM; in data set [9], 170 nM.

`O=C(/C=C/c1cccc(S(=O)(=O)Nc2ccccc2)c1)NO` [BELINOSTAT]: the half-maximal inhibitory concentration (IC50) in data set [10] was determined as 2.9 nM; in data set [8] it was 1200 nM; in data set [9], 170 nM.

The half-life is the time needed for the level to fall by half in the phase considered. Turning to `CS(=O)(=O)c1cncc(C(=O)N2[C@@H](C(=O)N[C@@H](c3cc(F)c(C(F)(F)F)cc3F)C3CC3)C[C@H]3C[C@H]32)c1` [NELUTROCTIV], the half-life in [11] was 30 min.

As to `C[C@@]1(C(=O)N[C@@H](CCC(=O)O)C(=O)O)CCCN1C(=O)CN` [TROFINETIDE] (H-Gly-[αMeP]-Glu-OH), the half-life in data set [12] came out at 49 min.
